Like-named read-outs stand apart in the source and are kept apart here.
Tests used:
HeLa cells [1] = assay: [3H]-triptolide competition binding in intact HeLa cells
Description: To gain insight into triptolide's mechanism of action Applicant sought to determine its specific binding activity utilizing a system employing [^3H]-triptolide. In addition to competition with 1 μM or 10 μM unlabeled triptolide, Applicant also measured the binding affinities of triptolide analogs (FIG. 3A). These analogs have been previously described and differ structurally from triptolide in the hydrolysis of the 12,13 epoxide (2), and formation of the ketone at the C-14 hydroxyl (3) (FIG. 3A). […] The effective interaction of these analogs with a presumed triptolide binding entity led us to their use in subsequent experiments addressing the mode of triptolide's biological functions.
Labeling studies were performed by the addition of approximately 30 nM [^3H]-triptolide directly into the culture media for one hour at 37° C. For cold competition studies, 1 μM triptolide was incubated with the cells for one hour before or after the addition of [^3H]-triptolide. Triptolide analog studies followed a similar protocol where concentrations used for competition were either 1 or 10 μM added before [^3H]-triptolide. Medium was removed and cells were washed 3× in cold PBS. Total cell lysates were prepared (150 mM NaCl, 50 mM Tris-HCl pH 7.4, 1 mM EDTA, 1% Triton X-100, and Complete™ protease inhibitors (Roche)) and protein was quantitated before measuring the [^3H]-triptolide binding activity via liquid scintillation.

HeLa cells [2] = assay: [3H]-triptolide binding in presence or absence of extracellular calcium
Description: To understand further the nature of triptolide's interaction within the cell, Applicant altered cell culture conditions to examine if [^3H]-triptolide binding would be affected. […] Additionally, it has been established that aberrant calcium signaling can result in cell death (Rizzuto, et al., 2003, Oncogene 22, 8619-8627; Orrenius, et al., 2003, Nat Rev Mol Cell Biol 4, 552-565). Due to triptolide's own link with NFκB and NF-AT and its propensity to induce cell death, Applicant assessed whether triptolide binding could be modulated by free calcium levels. Adherent HeLa cells were cultured in the presence or absence of calcium containing medium for 16 hours before [^3H]-triptolide addition. […] It is also noteworthy that an increase in cell density (not cell number) also increases triptolide binding regardless of calcium levels. Additionally, specific calcium chelation by 10 mM EGTA for one hour in calcium containing medium increased binding by nearly 2 fold.
Labeling studies were performed by the addition of approximately 30 nM [^3H]-triptolide directly into the culture media for one hour at 37° C. […] Total cell lysates were prepared (150 mM NaCl, 50 mM Tris-HCl pH 7.4, 1 mM EDTA, 1% Triton X-100, and Complete™ protease inhibitors (Roche)) and protein was quantitated before measuring the [^3H]-triptolide binding activity via liquid scintillation.

Pkd2^+/− cells = assay: Viability of Pkd2+/− kidney epithelial cells; format: cell-based, murine; details: Pkd2+/− cells (one copy each of Pkd1 and Pkd2), 100 nM
[3] = Dose finding / toxicity in pregnant C57B1/6 mice; format: in vivo
Description: Triptolide has been previously studied in rodent models of tumor regression (Tengchaisri, et al., 1998, Cancer Lett 133, 169-175; Yang, et al., 2003, Mol Cancer Ther 2, 65-72), but it had not yet been tested in a system utilizing pregnant females. To first establish a potential therapeutic versus lethal concentration of drug delivery, pregnant C57B1/6 mice were treated with incremental concentrations of triptolide between 0.01-0.15 mg/kg/day i.p. injections. Toxicity was assessed as determined by resorption of all embryos or the preponderance of a large percentage of stillborns. With reference to these criteria, triptolide toxicity was determined to be most prominent at concentrations of 0.1 mg/kg/day or greater. […] Another experimental parameter involved the timing of the start of triptolide injections, since polycystin-2 has been implicated in left-right axis formation in the developing embryo at approximately E7.75 (McGrath, et al., 2003, Cell 114, 61-73; Pennekamp, et al., 2002, Curr Biol 12, 938-943). Applicants therefore chose E10.5 as the start of triptolide injections, in order to allow for a normal polycystin-2 mediated patterning event and still leave sufficient time to act on cyst formation during kidney organogenesis.

[4] = test system: Pkd1^−/− murine model of polycystic kidney disease; format: in vivo, mice; details: for Alive Pkd1^−/− (birth): 0.07 mg/kg/day i.p. to pregnant mice; for Alive Pkd1^−/− (birth) / Ave. kidney wet weight Pkd1^−/−: E10.5 until birth; for Ave. kidney wet weight Pkd1^−/−: 0.07 mg/kg/day i.p.
Description: As per approved IACUC animal protocol, Pkd1^+/−/Pkd1^+/− mice were mated and pregnant mice were divided into control (DMSO) or experimental (triptolide) groups. A total volume of 100 μl of PBS with no more than 5% DMSO or DMSO/0.07 mg/kg/day triptolide was injected i.p. with a 28 G ½ insulin syringe. Mice were weighed and injected starting at E10.5 until birth. All pups were examined for length and developmental staging such as whisker formation. Kidneys were harvested, weighed, and fixed in 4% paraformaldehyde before histological preparation.
Kidneys were prepared by sagittal cross-sectioning and hematoxylin and eosin staining. All kidneys were photographed under the same magnification (4×) and cystic burden was computed using Image J analysis software (NIH). The area of cysts within the total area of the kidney (pixels) was calculated as a final percentage of cystic burden in the kidney. Immunohistochemical analysis of active caspase-3 was completed as per manufacturer's protocol.
Following successful Pkd1^+/− Pkd1^+/− matings, 0.07 mg/kg/day of triptolide or DMSO control was injected i.p. into pregnant mice until they gave birth. All pups were assessed for viability, length, developmental staging, and wet kidney weight. A total of 59 pups from DMSO treated females and 100 pups from triptolide treated females were examined for multiple parameters, such as genotypic distribution, developmental stage at time of birth, and average kidney weights (Table 1). […] Approximately 20% of all Pkd1^−/− mice were born alive from each treatment group. However, severe edematous abnormalities were obvious upon necropsy.

[5] = Pkd1^−/− pups, 0.07 mg/kg/day i.p. during gestation

## CC(C)[C@]12O[C@H]1[C@@H]1O[C@]13[C@]1(O[C@H]1C[C@H]1C4=C(CC[C@@]13C)C(=O)OC4)[C@@H]2O [triptolide]
HeLa cells [1]; 1 μM cold triptolide after [3H]-triptolide
  nature of triptolide binding (out-competed by subsequent excess unlabeled triptolide): reversible
HeLa cells [1]; 1 or 10 μM unlabeled competitor for 1 h before approx. 30 nM [3H]-triptolide for 1 h
  displacement of / competition for [3H]-triptolide binding: significantly competed
HeLa cells [2]; 10 mM EGTA 1 h in calcium containing medium
  increase of [3H]-triptolide binding on calcium chelation: ~2 fold
HeLa cells [2]; calcium-free medium 16 h before [3H]-triptolide
  increase of [3H]-triptolide binding in absence of extracellular calcium: 2-4 fold
Pkd2^+/− cells
  cell viability: rapid cell death within 24 hours
[3]; 0.07 mg/kg/day i.p.
  adverse effects: no discernable adverse effects
[3]; female, mouse, in vivo, ip, read-out: maximum tolerated dose
  MTD: 0.07 mg/kg/day
[3]; i.p., 0.01-0.15 mg/kg/day tested
  dose at which toxicity (resorption of all embryos or large percentage of stillborns) was most prominent: ≥ 0.1 mg/kg/day
[4]
  Alive Pkd1^−/− (birth): Approximately 20%
[4]; listed as Triptolide
  Alive Pkd1^−/− (birth): 4 (22%)
[4]; mean ± SE
  Ave. kidney wet weight Pkd1^−/−: 24.6 ± 0.8 mg
[4]; mean ± SE, listed as Triptolide
  Ave. kidney wet weight Pkd1^−/−: 21.8 ± 2.8 mg
[4]; Pkd1^−/− kidneys, 0.07 mg/kg/day i.p. during gestation
  active caspase-3 immunoreactivity in kidney sections: did not show any significant activation of the caspase pathway
[4]; [5]
  diameter of cyst lumens on average: smaller
  maximum cyst burden: 25%
[4]; Pkd1^−/− pups, 0.07 mg/kg/day i.p. during gestation, mean ± SE
  cystic burden (cyst area as percentage of total kidney area), average: 15±2.1%
[4]; mouse, in vivo
  wet kidney weight or overall size of Pkd1^+/+ or Pkd1^+/− mice versus DMSO: no significant difference

Reference: US20080063601A1, “Compositions and methods relating to polycystic kidney disease” (priority 2004, published 2008)
